ChEMBL document CHEMBL1201862, “PubChem BioAssay data set” (2004)
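Following 48 hours of exposure in 96-well plates, responses at five concentrations were used to interpolate endpoints linearly. The concentration for 50% growth inhibition is given as GI50.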 Active and inactive are the calls of the source. No stated cut-off is given here; in the data, active = GI50 up to about 1.1 µM and inactive = higher.

Columns and labels:
Assay in all cases: growth of human tumour cells (NCI), 48 h
ACHN = system: ACHN
UO-31 = system: UO-31
HT-29 = system: HT-29
OVCAR-8 = system: OVCAR-8
HCT-15 = system: HCT-15
786-0 = system: 786-0
MDA-N = system: MDA-N
SNB-19 = system: SNB-19
MDA-MB-435 = system: MDA-MB-435
TK-10 = system: TK-10
SK-MEL-28 = system: SK-MEL-28
KM12 = system: KM12
HOP-62 = system: HOP-62
COLO 205 = system: COLO 205
U-251 = system: U-251
PC-3 = system: PC-3
OVCAR-5 = system: OVCAR-5
OVCAR-4 = system: OVCAR-4
IGROV-1 = system: IGROV-1
NCI-H522 = system: NCI-H522
SW-620 = system: SW-620
HOP-92 = system: HOP-92
RPMI-8226 = system: RPMI-8226
Malme-3M = system: Malme-3M
K562 = system: K562
CCRF-CEM = system: CCRF-CEM
UACC-62 = system: UACC-62
HCT-116 = system: HCT-116
M14 = system: M14
T47D = system: T47D
BT-549 = system: BT-549
MDA-MB-231 = system: MDA-MB-231
OVCAR-3 = system: OVCAR-3
SF-268 = system: SF-268
SK-MEL-2 = system: SK-MEL-2
NCI/ADR-RES = system: NCI/ADR-RES
SK-MEL-5 = system: SK-MEL-5
Hs-578T = system: Hs-578T
NCI-H226 = system: NCI-H226
LOX IMVI = system: LOX IMVI
UACC-257 = system: UACC-257
HCC 2998 = system: HCC 2998
SNB-75 = system: SNB-75
A498 = system: A498
SR = system: SR
A549 = system: A549
CAKI-1 = system: CAKI-1
HL-60 = system: HL-60
SN12C = system: SN12C
DU-145 = system: DU-145
NCI-H23 = system: NCI-H23
NCI-H460 = system: NCI-H460
EKVX = system: EKVX
SF-539 = system: SF-539
RXF 393 = system: RXF 393
MCF7 = system: MCF7
MOLT-4 = system: MOLT-4
SK-OV-3 = system: SK-OV-3
SF-295 = system: SF-295

Question: How did the GI50 (ACHN) turn out when `COc1cc(C2C(C#N)=C(N)OC3=C2CCS(=O)(=O)c2ccc(C)cc23)cc(OC)c1OC` (stereo unspecified) was run?
Answer: > 100 µM (inactive)

Question: What about the GI50 (UO-31) of the same compound?
Answer: > 100 µM (inactive)

Question: And the GI50 (HT-29)?
Answer: > 100 µM (inactive)

Question: What about the GI50 (OVCAR-8) of the same compound?
Answer: > 100 µM (inactive)

Question: What about the GI50 (HCT-15) of the same compound?
Answer: > 100 µM

Question: And the GI50 (786-0)?
Answer: > 100 µM (inactive)

Question: What about the GI50 (MDA-N) of the same compound?
Answer: > 100 µM (inactive)

Question: What about the GI50 (SNB-19) of the same compound?
Answer: > 100 µM (inactive)

Question: And the GI50 (MDA-MB-435)?
Answer: > 100 µM (inactive)

Question: And the GI50 (TK-10)?
Answer: > 100 µM (inactive)

Question: And the GI50 (SK-MEL-28)?
Answer: > 100 µM (inactive)

Question: What about the GI50 (KM12) of the same compound?
Answer: > 100 µM (inactive)

Question: What about the GI50 (HOP-62) of the same compound?
Answer: > 100 µM (inactive)

Question: And the GI50 (COLO 205)?
Answer: > 100 µM (inactive)

Question: What about the GI50 (U-251) of the same compound?
Answer: > 100 µM (inactive)

Question: And the GI50 (PC-3)?
Answer: > 100 µM (inactive)

Question: What about the GI50 (OVCAR-5) of the same compound?
Answer: > 100 µM (inactive)

Question: What about the GI50 (OVCAR-4) of the same compound?
Answer: > 100 µM (inactive)

Question: And the GI50 (IGROV-1)?
Answer: > 100 µM (inactive)

Question: What about the GI50 (NCI-H522) of the same compound?
Answer: > 100 µM (inactive)

Question: What about the GI50 (SW-620) of the same compound?
Answer: > 100 µM (inactive)

Question: What about the GI50 (HOP-92) of the same compound?
Answer: > 100 µM (inactive)

Question: What about the GI50 (RPMI-8226) of the same compound?
Answer: > 100 µM (inactive)

Question: What about the GI50 (Malme-3M) of the same compound?
Answer: > 100 µM (inactive)

Question: What about the GI50 (K562) of the same compound?
Answer: > 100 µM (inactive)

Question: And the GI50 (CCRF-CEM)?
Answer: > 100 µM (inactive)

Question: And the GI50 (UACC-62)?
Answer: > 100 µM (inactive)

Question: What about the GI50 (HCT-116) of the same compound?
Answer: > 100 µM (inactive)

Question: And the GI50 (M14)?
Answer: > 100 µM (inactive)

Question: What about the GI50 (T47D) of the same compound?
Answer: > 100 µM (inactive)

Question: What about the GI50 (BT-549) of the same compound?
Answer: > 100 µM (inactive)

Question: What about the GI50 (MDA-MB-231) of the same compound?
Answer: > 100 µM (inactive)

Question: What about the GI50 (OVCAR-3) of the same compound?
Answer: > 100 µM (inactive)

Question: And the GI50 (SF-268)?
Answer: > 100 µM (inactive)

Question: And the GI50 (SK-MEL-2)?
Answer: > 100 µM (inactive)

Question: What about the GI50 (NCI/ADR-RES) of the same compound?
Answer: > 100 µM (inactive)

Question: And the GI50 (SK-MEL-5)?
Answer: > 100 µM (inactive)

Question: And the GI50 (Hs-578T)?
Answer: > 100 µM (inactive)

Question: What about the GI50 (NCI-H226) of the same compound?
Answer: > 100 µM (inactive)

Question: And the GI50 (LOX IMVI)?
Answer: > 100 µM (inactive)

Question: And the GI50 (UACC-257)?
Answer: > 100 µM (inactive)

Question: What about the GI50 (HCC 2998) of the same compound?
Answer: > 100 µM (inactive)

Question: And the GI50 (SNB-75)?
Answer: > 100 µM (inactive)

Question: And the GI50 (A498)?
Answer: > 100 µM (inactive)

Question: And the GI50 (SR)?
Answer: 47.8 µM (inactive)

Question: What about the GI50 (A549) of the same compound?
Answer: > 100 µM (inactive)

Question: And the GI50 (CAKI-1)?
Answer: > 100 µM (inactive)

Question: What about the GI50 (HL-60) of the same compound?
Answer: > 100 µM (inactive)

Question: And the GI50 (SN12C)?
Answer: > 100 µM (inactive)

Question: What about the GI50 (DU-145) of the same compound?
Answer: > 100 µM (inactive)

Question: And the GI50 (NCI-H23)?
Answer: > 100 µM (inactive)

Question: What about the GI50 (NCI-H460) of the same compound?
Answer: > 100 µM (inactive)

Question: Which GI50 (ACHN) does the source give for `CC1(C)CC(=O)C2(CC(CSc3ccccc3)C(CS(=O)(=O)c3ccccc3)C2)C(=O)C1` (stereo unspecified) here?
Answer: > 100 µM (inactive)

Question: What about the GI50 (UO-31) of the same compound?
Answer: > 100 µM (inactive)

Question: And the GI50 (EKVX)?
Answer: > 100 µM (inactive)

Question: What about the GI50 (HT-29) of the same compound?
Answer: 78.3 µM (inactive)

Question: What about the GI50 (OVCAR-8) of the same compound?
Answer: > 100 µM (inactive)

Question: What about the GI50 (HCT-15) of the same compound?
Answer: > 100 µM

Question: And the GI50 (786-0)?
Answer: > 100 µM (inactive)

Question: What about the GI50 (SNB-19) of the same compound?
Answer: > 100 µM (inactive)

Question: What about the GI50 (MDA-MB-435) of the same compound?
Answer: > 100 µM (inactive)

Question: What about the GI50 (TK-10) of the same compound?
Answer: > 100 µM (inactive)

Question: What about the GI50 (SK-MEL-28) of the same compound?
Answer: > 100 µM (inactive)

Question: And the GI50 (SF-539)?
Answer: > 100 µM (inactive)

Question: What about the GI50 (KM12) of the same compound?
Answer: > 100 µM (inactive)

Question: And the GI50 (HOP-62)?
Answer: > 100 µM (inactive)

Question: And the GI50 (COLO 205)?
Answer: > 100 µM (inactive)

Question: What about the GI50 (U-251) of the same compound?
Answer: > 100 µM (inactive)

Question: What about the GI50 (PC-3) of the same compound?
Answer: 30.8 µM (inactive)

Question: And the GI50 (OVCAR-5)?
Answer: > 100 µM (inactive)

Question: And the GI50 (OVCAR-4)?
Answer: > 100 µM (inactive)

Question: What about the GI50 (IGROV-1) of the same compound?
Answer: > 100 µM (inactive)

Question: And the GI50 (NCI-H522)?
Answer: > 100 µM (inactive)

Question: And the GI50 (SW-620)?
Answer: > 100 µM (inactive)

Question: What about the GI50 (HOP-92) of the same compound?
Answer: > 100 µM (inactive)

Question: What about the GI50 (RPMI-8226) of the same compound?
Answer: 66.4 µM (inactive)

Question: What about the GI50 (RXF 393) of the same compound?
Answer: > 100 µM (inactive)

Question: What about the GI50 (K562) of the same compound?
Answer: > 100 µM (inactive)

Question: And the GI50 (CCRF-CEM)?
Answer: > 100 µM (inactive)

Question: What about the GI50 (UACC-62) of the same compound?
Answer: > 100 µM (inactive)

Question: What about the GI50 (HCT-116) of the same compound?
Answer: > 100 µM (inactive)

Question: And the GI50 (M14)?
Answer: > 100 µM (inactive)

Question: What about the GI50 (T47D) of the same compound?
Answer: 45.5 µM (inactive)

Question: What about the GI50 (BT-549) of the same compound?
Answer: > 100 µM (inactive)

Question: What about the GI50 (MCF7) of the same compound?
Answer: > 100 µM (inactive)

Question: And the GI50 (MDA-MB-231)?
Answer: > 100 µM (inactive)

Question: What about the GI50 (OVCAR-3) of the same compound?
Answer: > 100 µM (inactive)

Question: What about the GI50 (SF-268) of the same compound?
Answer: > 100 µM (inactive)

Question: And the GI50 (SK-MEL-2)?
Answer: > 100 µM (inactive)

Question: What about the GI50 (NCI/ADR-RES) of the same compound?
Answer: > 100 µM (inactive)

Question: What about the GI50 (SK-MEL-5) of the same compound?
Answer: > 100 µM (inactive)

Question: And the GI50 (Hs-578T)?
Answer: > 100 µM (inactive)

Question: What about the GI50 (MOLT-4) of the same compound?
Answer: > 100 µM (inactive)

Question: What about the GI50 (NCI-H226) of the same compound?
Answer: > 100 µM (inactive)

Question: What about the GI50 (LOX IMVI) of the same compound?
Answer: > 100 µM (inactive)

Question: What about the GI50 (UACC-257) of the same compound?
Answer: > 100 µM (inactive)

Question: What about the GI50 (SK-OV-3) of the same compound?
Answer: > 100 µM (inactive)

Question: And the GI50 (HCC 2998)?
Answer: > 100 µM (inactive)

Question: And the GI50 (SNB-75)?
Answer: 4.85 µM (inactive)

Question: What about the GI50 (A498) of the same compound?
Answer: > 100 µM (inactive)

Question: What about the GI50 (A549) of the same compound?
Answer: > 100 µM (inactive)

Question: And the GI50 (CAKI-1)?
Answer: > 100 µM (inactive)

Question: What about the GI50 (SN12C) of the same compound?
Answer: > 100 µM (inactive)

Question: And the GI50 (DU-145)?
Answer: > 100 µM (inactive)

Question: And the GI50 (NCI-H23)?
Answer: > 100 µM (inactive)

Question: And the GI50 (SF-295)?
Answer: > 100 µM (inactive)
